Test results reported in patent US20260183402A1, “NUTRITIONAL COMPOSITION” (priority 2010, published 2026).
Where two headings read alike, the source gives them in different places.

Conditions: normal human subjects, measured over 24 hours

C[C@@H](O)CCOC(=O)C[C@@H](C)O [D-β-hydroxybutyrate-R 1,3-butanediol monoester]
maximum plasma ketone concentration (single dose 140 mg/kg ketone ester in milk-based drink): 0.23 mM
maximum plasma ketone concentration (single dose 357 mg/kg ketone ester in milk-based drink): 0.76 mM
maximum plasma ketone concentration (single dose 714 mg/kg ketone ester in milk-based drink): 3.42 mM
